From article PMC4079327 (Journal of Medicinal Chemistry, 2014)

Legend:
PfDHODH [1] = molecular target: T1, PfDHODH (Plasmodium falciparum, UniProt Q08210, DEL384-413); assay: Isothermal titration calorimetry; format: binding; settings: ITC, 303 K; for ΔH PfDHODH: 1σ confidence interval in parentheses
T1 sequence (Q08210 with tags, fused parts or gaps DEL384-413): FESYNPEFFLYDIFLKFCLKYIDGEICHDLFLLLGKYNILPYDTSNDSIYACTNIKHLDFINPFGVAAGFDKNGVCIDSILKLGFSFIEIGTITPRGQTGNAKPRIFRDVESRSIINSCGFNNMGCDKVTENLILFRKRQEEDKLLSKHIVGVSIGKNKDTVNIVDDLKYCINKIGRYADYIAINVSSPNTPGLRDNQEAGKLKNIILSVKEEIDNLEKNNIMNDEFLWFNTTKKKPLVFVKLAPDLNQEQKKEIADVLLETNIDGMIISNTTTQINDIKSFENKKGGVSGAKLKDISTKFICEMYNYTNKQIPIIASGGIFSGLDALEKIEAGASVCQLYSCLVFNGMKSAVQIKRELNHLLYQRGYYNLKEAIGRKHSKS

HsDHODH = HsDHODH (Homo sapiens, UniProt Q02127); assay: DHODH steady-state inhibition, DCIP assay; format: biochemical
rat DHODH = rat DHODH (Rattus norvegicus, UniProt Q63707); assay: Isothermal titration calorimetry; format: binding; settings: ITC, 303 K; for ΔH rat DHODH: 1σ confidence interval in parentheses
HsDHODH R136A = HsDHODH R136A (Homo sapiens, UniProt Q02127, R135A); assay: biochemical
HsDHODH L46A = HsDHODH L46A (Homo sapiens, UniProt Q02127, L45A); assay: biochemical
rDHODH = rDHODH (Rattus norvegicus, UniProt Q63707); assay: DHODH steady-state inhibition, DCIP assay; format: biochemical
mDHODH = mDHODH (Mus musculus, UniProt O35435); assay: DHODH steady-state inhibition, DCIP assay; format: biochemical
dDHODH = dDHODH (Canis lupus familiaris, UniProt A0A8I3MWX2); assay: DHODH steady-state inhibition, DCIP assay; format: biochemical, dog
PfDHODH [2] = molecular target: T2, PfDHODH (Plasmodium falciparum, UniProt Q08210); settings: read-out: IC50 PfDHODH; cited from earlier work
T2 sequence (Q08210 158-569): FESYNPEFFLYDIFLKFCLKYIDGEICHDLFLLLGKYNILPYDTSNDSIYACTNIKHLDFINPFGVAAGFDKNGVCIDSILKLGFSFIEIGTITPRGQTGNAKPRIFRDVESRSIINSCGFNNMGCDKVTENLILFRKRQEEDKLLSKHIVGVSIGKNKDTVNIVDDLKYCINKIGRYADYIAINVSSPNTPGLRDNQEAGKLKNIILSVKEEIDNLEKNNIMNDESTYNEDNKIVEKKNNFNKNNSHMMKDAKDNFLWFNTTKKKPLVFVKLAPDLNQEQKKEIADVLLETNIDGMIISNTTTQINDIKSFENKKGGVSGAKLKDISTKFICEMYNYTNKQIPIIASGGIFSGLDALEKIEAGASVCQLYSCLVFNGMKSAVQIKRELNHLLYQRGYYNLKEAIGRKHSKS

P. falciparum 3D7 cells = settings: read-out: IC50 P. falciparum 3D7 cells; cited from earlier work
HsDHODH L359A = HsDHODH L359A (Homo sapiens, UniProt Q02127, L358A); assay: biochemical
Sequence of HsDHODH L359A (Q02127 32-395 L358A): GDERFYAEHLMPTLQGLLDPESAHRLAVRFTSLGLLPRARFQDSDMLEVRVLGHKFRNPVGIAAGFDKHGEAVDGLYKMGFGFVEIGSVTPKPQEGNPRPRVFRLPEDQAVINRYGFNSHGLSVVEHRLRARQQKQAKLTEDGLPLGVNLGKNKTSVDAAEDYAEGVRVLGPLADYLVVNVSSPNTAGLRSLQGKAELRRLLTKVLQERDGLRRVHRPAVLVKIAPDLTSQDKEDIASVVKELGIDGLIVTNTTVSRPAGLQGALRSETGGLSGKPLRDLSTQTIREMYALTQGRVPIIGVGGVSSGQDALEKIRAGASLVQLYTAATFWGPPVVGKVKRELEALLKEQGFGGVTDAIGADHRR

Sequence of HsDHODH R136A (Q02127 32-395 R135A): as the sequence (Q02127 32-395 L358A) above, with R104A, A327L counted along it
Sequence of rat DHODH (Q63707 32-395 limits assumed): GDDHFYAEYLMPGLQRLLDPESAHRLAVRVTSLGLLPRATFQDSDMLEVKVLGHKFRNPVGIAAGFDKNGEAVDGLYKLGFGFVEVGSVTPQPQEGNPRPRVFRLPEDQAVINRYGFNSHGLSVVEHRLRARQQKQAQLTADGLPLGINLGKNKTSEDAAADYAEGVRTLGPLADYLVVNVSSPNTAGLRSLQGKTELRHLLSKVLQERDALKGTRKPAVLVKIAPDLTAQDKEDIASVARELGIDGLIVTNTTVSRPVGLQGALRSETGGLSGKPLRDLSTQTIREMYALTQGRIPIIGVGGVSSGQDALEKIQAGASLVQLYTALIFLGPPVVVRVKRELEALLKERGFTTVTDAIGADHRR
Sequence of HsDHODH L46A (Q02127 32-395 L45A): as the sequence (Q02127 32-395 L358A) above, with L14A, A327L counted along it
Sequence of HsDHODH (Q02127 29-395 limits assumed): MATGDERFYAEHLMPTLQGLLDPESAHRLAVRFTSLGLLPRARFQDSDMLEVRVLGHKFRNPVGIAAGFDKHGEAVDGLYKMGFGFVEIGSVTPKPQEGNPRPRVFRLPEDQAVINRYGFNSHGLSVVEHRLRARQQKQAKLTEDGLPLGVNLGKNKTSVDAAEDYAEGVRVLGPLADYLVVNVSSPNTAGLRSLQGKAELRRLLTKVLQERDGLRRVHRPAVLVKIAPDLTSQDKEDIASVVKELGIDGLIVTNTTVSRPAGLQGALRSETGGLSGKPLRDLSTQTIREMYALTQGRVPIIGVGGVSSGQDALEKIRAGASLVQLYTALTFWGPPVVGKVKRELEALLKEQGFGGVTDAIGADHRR
Sequence of rDHODH (Q63707 29-395 limits assumed): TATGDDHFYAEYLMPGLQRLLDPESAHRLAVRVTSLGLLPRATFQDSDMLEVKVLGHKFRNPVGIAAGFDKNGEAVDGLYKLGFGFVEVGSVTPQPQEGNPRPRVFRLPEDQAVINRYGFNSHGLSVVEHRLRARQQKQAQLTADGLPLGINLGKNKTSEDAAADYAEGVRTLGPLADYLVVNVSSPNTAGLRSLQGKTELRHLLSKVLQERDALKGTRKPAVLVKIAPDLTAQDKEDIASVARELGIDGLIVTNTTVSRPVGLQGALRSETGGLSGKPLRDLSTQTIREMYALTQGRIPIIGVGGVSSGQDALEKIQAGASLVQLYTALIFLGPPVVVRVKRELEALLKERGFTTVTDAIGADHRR
Sequence of mDHODH (O35435 29-395 limits assumed): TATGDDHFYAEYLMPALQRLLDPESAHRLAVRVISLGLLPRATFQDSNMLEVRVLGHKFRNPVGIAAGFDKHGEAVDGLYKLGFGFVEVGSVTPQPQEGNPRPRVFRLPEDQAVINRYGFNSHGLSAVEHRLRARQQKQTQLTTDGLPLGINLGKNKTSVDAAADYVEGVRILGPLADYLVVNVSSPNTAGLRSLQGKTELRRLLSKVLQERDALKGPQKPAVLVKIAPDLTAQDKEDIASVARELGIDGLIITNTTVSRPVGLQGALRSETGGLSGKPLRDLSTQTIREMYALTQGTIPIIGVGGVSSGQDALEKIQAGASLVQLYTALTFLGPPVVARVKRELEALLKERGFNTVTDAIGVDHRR
Sequence of dDHODH (A0A8I3MWX2 29-395): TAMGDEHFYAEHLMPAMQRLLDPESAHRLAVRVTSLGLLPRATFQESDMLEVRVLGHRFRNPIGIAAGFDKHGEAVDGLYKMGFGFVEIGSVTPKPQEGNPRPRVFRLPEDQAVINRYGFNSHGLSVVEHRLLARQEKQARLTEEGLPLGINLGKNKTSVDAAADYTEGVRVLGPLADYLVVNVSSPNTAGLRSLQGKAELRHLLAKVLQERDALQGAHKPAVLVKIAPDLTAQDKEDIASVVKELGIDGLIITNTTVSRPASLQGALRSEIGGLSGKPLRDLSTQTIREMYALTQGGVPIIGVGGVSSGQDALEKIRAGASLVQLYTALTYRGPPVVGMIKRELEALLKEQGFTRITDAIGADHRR

Row | SMILES | –TΔS PfDHODH (PfDHODH [1]) | ΔH PfDHODH (PfDHODH [1]) | inhibition of the human enzyme (in words) (HsDHODH) | ΔH rat DHODH (rat DHODH) | IC50 (HsDHODH R136A) [µM] | IC50 (HsDHODH L46A) [µM] | inhibition of rat DHODH (in words) (rDHODH) | inhibition of mouse DHODH (in words) (mDHODH) | inhibition of dog DHODH (in words) (dDHODH) | IC50 (PfDHODH [2]) [µM] | IC50 (P. falciparum 3D7 cells) [µM] | IC50 (HsDHODH L359A) [µM] | –TΔS rat DHODH (rat DHODH)
1 | Cc1cc(Nc2ccc(C(F)(F)F)cc2)n2nc(C(C)(F)F)nc2n1 [Compound 5, 2-(1,1-difluoroethyl)-5-methyl-N-[4-(trifluoromethyl)phenyl]-[1,2,4]triazolo[1,5-a]pyrimidin-7-amine] | –2.2 kcal/mol | –8.3 (−9.2 to −7.5) kcal/mol | did not inhibit |  |  |  |  |  |  |  |  |  | 
2 | Cc1cc(Nc2cc(F)c(C(F)(F)F)c(F)c2)n2nc(C(F)(F)F)nc2n1 [Compound 6, N-(3,5-difluoro-4-(trifluoromethyl)phenyl)-2-(trifluoromethyl)-5-methyl-[1,2,4]-triazolo[1,5-a]pyrimidin-7-amine] | –4.5 kcal/mol | –6.5 (−6.9 to −6.2) kcal/mol |  | –1.6 (−1.8 to −1.5) kcal/mol | > 100 | > 100 |  |  |  |  |  |  | 
3 | Cc1cc(Nc2ccc(C(F)(F)F)cc2)n2ncnc2n1 [Compound 8, (5-methyl[1,2,4]triazolo[1,5-a]pyrimidin-7-yl)(4-trifluoromethylphenyl)amine] | 1.5 kcal/mol | –10 (−12 to −9.8) kcal/mol | did not inhibit |  |  |  | did not inhibit | did not inhibit | did not inhibit |  |  |  | 
4 | Cc1cc(Nc2cc(F)c(C(F)(F)F)c(F)c2)n2ncnc2n1 [Compound 9, N-(3,5-difluoro-4-(trifluoromethyl)phenyl)-5-methyl-[1,2,4]triazolo[1,5-a]pyrimidin-7-amine] |  |  |  |  |  |  |  |  |  | 0.13 | 0.22 |  | 
5 | Cc1cc(Nc2ccc(C(F)(F)F)c(F)c2)n2nc(C(C)(F)F)nc2n1 [Compound 10, 2-(1,1-difluoroethyl)-N-[3-fluoro-4-(trifluoromethyl)phenyl]-5-methyl [1,2,4]triazolo[1,5-a]pyrimidin-7-amine] | –2.1 kcal/mol | –9.0 (−9.3 to −8.7) kcal/mol |  |  | > 100 | > 100 |  |  |  |  |  | > 100 | 
6 | Cc1cc(Nc2cc(F)c(C(F)(F)F)c(F)c2)n2nc(C(C)(F)F)nc2n1 [Compound 11, N-(3,5-difluoro-4-(trifluoromethyl)phenyl)-2-(1,1-difluoroethyl)-5-methyl[1,2,4]-triazolo-[1,5-a]pyrimidin-7-amine] | –3.3 kcal/mol | –8.1 (−8.8 to −7.5) kcal/mol |  | –2.1 (−2.5 to −1.9) kcal/mol | > 100 | > 100 |  |  |  |  |  | > 100 | –8.0 kcal/mol
